One data set deals with MDA-MB-231 breast cancer. Conditions: MDA-MB-231 cells (breast cancer), 24 h, MTT; MPT-63 at 1, 5 and 10 μM.
The next data set deals with U87 human glioblastoma. The conditions noted are these: U87 cells (brain cancer), 24 h, MTT; MPT-63 at 1, 5 and 10 μM.
Data set [1] has as its system UM-UC-3 bladder cancer cell line. In words: MTT cytotoxicity assay, UM-UC-3 bladder carcinoma cell line. Type of data set: cell-based, human. Conditions: UM-UC-3 cells, 1.0 and 10 μM, 24 h. The text has this: ATCC: UM-UC-3: Human cell line with epithelial-like characteristics established from a high grade invasive urinary bladder carcinoma of a patient. This is a hypertriploid human cell line and IFN non responsive. This cell line is tumorigenic in nature.
On the technique in general: Formazan colour is commonly taken as a measure of viable cells.

In another data set the test system is HepG2 liver cancer. Conditions: HepG2 cells (liver cancer), 24 h, MTT; MPT-63 at 1, 5 and 10 μM.
Data set [2] deals with CaSki cervix cancer cell line. The conditions noted are these: CaSki cells, compared with MB30, MTT.
Experimental: (§1) The viability of the cells was estimated by using MTT assay on the basis of formazan formed, which was detected spectrophotometrically by optical density at 570 nm at 24 h, 48 h and 72 h [Bar-mean±S.E.].
All cell lines were grown under standard conditions in humidified 37° C. incubator in 5% CO2 as described earlier (Garg et al., 2009; Kanojia et al., 2010).
(§2) MTT [3-(4, 5-dimethylthiazol-2-yl)-2,5-diphenyl tetrazolium bromide] assay was carried out for measurement of the cytotoxicity of different anticancer peptides. The water soluble tetrazolium salt, MTT [3-(4,5-dimethylthiazol-2-yl)-2,5-diphenyl tetrazolium bromide] is metabolized to the water insoluble formazan by intact mitochondrial dehydrogenases. The formazan is then solubilized by adding 2-propanol+40 mM HCl for 4 h incubation. […] The viability of the cells was estimated on the basis of formazan formed, which was detected spectrophotometrically by optical density at 570 nm at 24 h, 48 h and 72 h. At every time point such as 24 h, 48 h and 72 h, 1×10^4 cells were seeded without the peptide in triplicate in each plate for a given treatment of peptide. This was used as control cytotoxicity levels to calculate the percent cell cytotoxicity of every peptide treatment. […] All the experiments were carried out in triplicates and repeated three times.
In data set [3] the test system is SiHa cervix cancer cell line. The conditions noted are these: SiHa cells, compared with MB30, MTT.
Experimental: as §1, §2
The test system of data set [4] is HCT 116 colorectal cancer cell line. The data set is classed as cell-based, human. The conditions noted are these: HCT 116 cells, compared with MB30, MTT. From the text:
ATCC HCT 116: Human cell line with epithelial-like characteristics established from colorectal carcinoma from an adult patient. The cells are positive for keratin by immunoperoxidase staining. HCT 116 cells are positive for transforming growth factor beta 1 (TGF beta 1) and beta 2 (TGF beta 2) expression. This line has a mutation in codon 13 of the ras protooncogene, and can be used as a positive control for PCR assays of mutation in this codon.

Results on 4 molecules are retold here after patent US9624277B2, “Anticancer agent” (AMRITA THERAPEUTICS LIMITED, priority 2010, dated 2017).

No end group written: not given here.

GQVWEATATVNAIRGSVTPAVSQFNARTAD [MB30]: the “cytotoxicity (in words)” value in the data set with MDA-MB-231 breast cancer, with U87 human glioblastoma and in the data set with HepG2 liver cancer was “better cytotoxicity in comparison to the full length protein MPT-63” throughout. For the same molecule, the “cytotoxicity levels (in words)” value in data set [1] is “higher cytotoxicity levels than the other peptide”.

Turning to NHFTLKCPKTALTEPPTLAY [TG20], the “cytotoxicity (in words)” value in data set [2], in data set [3] and in data set [4] was “less cytotoxicity” throughout.

On to TAGIKLTVPIEKFPVTTQTFVVG [TG23], for which the “cytotoxicity (in words)” value in data set [2], in data set [3] and in data set [4] was “less cytotoxicity” each time. For the same molecule, in data set [1], the “cytotoxicity levels (in words)” value is listed as “higher cytotoxicity levels than the other peptide”.

B1: MPT-63 (protein, listed as Mycobacterium bovis)
chain: MKLTTMIKTAVAVVAMAAIATFAEPVALAAYPITGKLGSELTMTDTVGQVVLGWKVSDLKSSTAVIPGYPVAGQVWEATATVNAIRGSVTPAVSQFNARTADGINYRVLWQAAGPDTISGATIPQGEQSTGKIYFDVTGPSPTIVAMNNGMQDLLIWEP
Regarding B1, the “cytotoxicity (in words)” value in the data set with MDA-MB-231 breast cancer, in the data set on U87 human glioblastoma and in the data set with HepG2 liver cancer was “shown cytotoxicity” throughout.
